According to US6290959A (New York University, dated 2001):

B1: bovine uroplakin II (mature) (other)
chain: ELVSVVDSGSGFTVTRLSAYQVTNLAPGTKYYISYLVTKGASTESSREIPMSTFPRRKAESIGLAMARTGGMVVITVLLSVAMFLLVLGLIIALALGARK

Assays:
[1] = system: type 1-fimbriated E. coli; assay: In vitro bacterial adherence assay: binding of 35S-labelled E. coli to immobilized bovine urothelial plaques (asymmetric unit membranes); conditions: 2x10^5 cpm; for effect of sugars on bacterial binding to bovine asymmetrical unit membranes: E. coli SH48 (type 1 only), preincubated with sugar, 0.2 μg immobilized bovine AUM
Protocol: Purified asymmetric unit membranes were suspended in PBS and incubated in 96-well polystyrene microtiter plates at room temperature for 30 minutes, then at 4° C. for 16 hours. All subsequent steps were carried out at room temperature. After being washed three times with PBS for two hours, the immobilized asymmetric membrane units were incubated with 2% BSA in PBS for two hours, and ^35 S-labelled bacteria were incubated in 2% BSA and 0.1% NaN3 for two hours. The wells were then washed four times with PBS, and the bound bacteria were dissolved in 1% SDS for 30 minutes and quantitated by scintillation counting. All binding studies were performed in triplicate.
Purified bovine urothelial plaques, consisting of asymmetric unit membranes that cover 70-80% of the urothelial apical surface, were immobilized on microtiter wells (0.2 microgram per well). The unoccupied binding sites were blocked with 3% BSA in PBS. BSA was used to coat the control wells. The E. coli strains used were J96, which express type 1 fimbriae as well as P fimbriae carrying the G-1 and G-2 adhesins; SH48, which expresses type 1 fimbriae only; HU849, which expresses P fimbriae carrying G-1 adhesin; IA2, which expresses P fimbriae carrying G-adhesins; and nonfimbriated P678-54.
^35 [S]methionine-labelled bacteria were added to each well (2×10^5 cpm in 10^7 bacteria suspended in PBS). After incubation at 25° C. for two hours, the wells were washed with PBS and the radioactivities of the bound bacteria, dissolved in 1% SDS, were counted. Each value represents the means of triplicates bracketed by the standard deviation (±15%). It should be noted that only the type 1-fimbriated J96 and SH48 strains, but not the P-expressing HU849 and IA2 or the nonfimbriated P678-54, adhered to the asymmetric unit membranes.
In FIG. 1B, the relative contribution of type 1 and P fimbriae in the binding of J96 to asymmetric unit membranes is shown. ^35 S-labelled J96 (2×10^5 cpm) were incubated with immobilized asymmetric unit membranes in the absence or the presence of 2% D-mannose.
To test the effects of sugars on the binding of type-1 fimbriated E. coli to bovine urothelial plaques, 2×10^5 cpm of radiolabeled E. coli (SH48) were preincubated with D-mannose (Man), methyl-α-D-mannopyranoside(MMP), or D-galactose (Gal) before they were incubated with 0.2 μg of immobilized bovine asymmetrical unit membranes.

[2] = system: type 1-fimbriated bacteria; assay: Bacterial (gel) overlay assay: radiolabelled bacteria on SDS/PAGE-resolved uroplakins on nitrocellulose; assay type: binding, E. coli; conditions: bovine uroplakins on nitrocellulose, autoradiography
Protocol: Asymmetric unit membrane proteins were resolved by SDS/PAGE (17% acrylamide; acrylamide/bisacrylamide=10:1) and electrophoretically transferred to nitrocellulose. After a brief incubation in 3% BSA in PBS to block the unoccupied sites, the nitrocellulose sheet was incubated with ^35 [S]methionine-labelled bacteria in 2% BSA and 0.1% NaN3. After three washings in PBS, the nitrocellulose was air-dried and autoradiographed.
To determine which of the asymmetric membrane proteins are responsible for this binding, a gel overlay assay was performed. Uroplakins were resolved by SDS/PAGE (cf. FIGS. 5A and 5B), transferred to nitrocellulose, and incubated with radiolabelled bacteria. […] The two major bacterial binding proteins were identified as the two closely related uroplakin proteins, i.e., the 27 kDa-uroplakin Ia and the 28 kDa-uroplakin Ib, according to their sizes and immunoreactivities (FIG. 5B, lanes 1 and 2). […] To determine whether the carbohydrate moieties of uroplakin I proteins were responsible for the binding of the type 1 fimbriae, as one might expect from the inhibitory effects of mannose (cf. FIG. 4), the effects of deglycosylation were tested, results shown in FIGS. 5D and E. Endo H removed about […] of sugars from uroplakin I proteins (cf. FIG. 5D, lanes 2 and 5). […]

[3] = target: E. coli strain SH48, expressing type 1 fimbriae only (FimH adhesin) (E. coli, UniProt P08191); assay: overlay of radiolabelled bacteria on SDS/PAGE-resolved uroplakins on nitrocellulose

Row | Molecule | effect of sugars on bacterial binding to bovine asymmetrical unit membranes [1] | binding of J96 to asymmetric unit membranes in the presence of mannose ([1]; E. coli strain J96 (type 1 and P fimbriae), 2% D-mannose, immobilized bovine AUM) | inhibition of binding of type 1-fimbriated bacteria to uroplakin protein bands [2] | binding result [3]
1 | O=C[C@@H](O)[C@@H](O)[C@H](O)[C@H](O)CO [D-mannose] | greatly inhibited | completely blocked | inhibited | 
2 | CO[C@H]1O[C@H](CO)[C@@H](O)[C@H](O)[C@@H]1O [methyl-α-D-mannopyranoside] | greatly inhibited |  |  | 
3 | O=C[C@H](O)[C@@H](O)[C@@H](O)[C@H](O)CO [D-galactose] | not |  | not | 
4 | B1 |  |  |  | no binding
